Test results reported in patent publication US20240327882A1, “Methods and Compositions for Increasing Bio-products in Cyanobacteria using Low-Dose Antibiotics” (priority 2023, published 2024).
“And” between values parts separate entries of the source, which are not always exact repeats. Identical values can stand only once. “Also recorded” adds a separate entry of the source.

How the values were obtained:
[1] = test system: F. diplosiphon strain B481-WT; experiment: lactate dehydrogenase (LDH) activity / membrane permeability, strain B481-WT; format: cell-based, Fremyella diplosiphon
Procedure: The assay quantitatively measures released extracellular LDH activity in culture media by enzymatic reaction.
(§1) F. diplosiphon strains, B481-WT obtained from the UTEX algae repository (Austin, TX, United States), and B481-SD (overexpressed strain with the sterol desaturase gene; accession MH329183) were used in this study. Cultures were grown in liquid BG-11/HEPES medium under wide-spectrum red light (650 nm) with continuous shaking at 170 rpm at 28° C. in an Innova 44R shaker (Eppendorf, Hamburg, Germany) for 6 days. Light fluorescence rate was adjusted to 30 μmol m^−2 s^−1 using the model LI-190SA quantum sensor (Li-Cor, United States). These conditions were kept constant during the study.
Three classes of antibiotics: β-lactams (ampicillin), aminoglycosides (kanamycin), and tetracycline, were tested in this study. Antibiotic stock solutions (25×-100×) were prepared according to the manufacturer's instructions and stored at −20° C. […] Each antibiotic concentration was mixed with 5 ml F. diplosiphon cells adjusted to OD750 nm and 200 μl of each dilution added. […]
The flasks were placed in an incubator at 37° C. in the dark for 24 h prior to lactate dehydrogenase (“LDH”) measurement. On day 6, 50 μl cultures were transferred to a 96 well clear polystyrene microplate (Corning, Inc., NY), and fluorescence Epi-RGB mode was used to macro-evaluation of antibiotic-treated both strains (Amersham Imager 680, GE Healthcare Bio-Sciences AB, Uppsala, Sweden). […] Absorbance was measured at 490 nm using a microplate reader (BioTek Synergy H1 Microplate Reader, Agilent, United States) after 2 h incubation in the dark at room temperature. The calculated average of the control included cells without antibiotics or nVZI treatment was accepted as healthy cells and results were determined by subtracting LDH activity of the control from treated cells. Microscopic observations of antibiotic-related membrane and cyanobacterial structure alterations were made using a Cytation 5 Cell Imaging Multi-Mode reader (BioTek® Instruments, Inc., Winooski, United States).

[2] = test system: F. diplosiphon strain B481-SD; experiment: phycocyanin and chlorophyll α autofluorescence, strain B481-SD; format: cell-based, Fremyella diplosiphon; conditions: for concentrations with significant increase in pigment (phycocyanin and chlorophyll α) autofluorescence / concentrations with significant decrease in pigment (phycocyanin and chlorophyll α) autofluorescence: vs untreated control
Procedure: as §1
(§2) Three classes of antibiotics: β-lactams (ampicillin), aminoglycosides (kanamycin), and tetracycline, were tested in this study. Antibiotic stock solutions (25×-100×) were prepared according to the manufacturer's instructions and stored at −20° C. […] Each antibiotic concentration was mixed with 5 ml F. diplosiphon cells adjusted to OD750 nm and 200 μl of each dilution added.
(§3) Cells grown in the absence of antibiotics or nZVIs served as control. In order to minimize the effects of light scattering, every other well was left blank. Plates were sealed with a Breathe-Easy sealing membrane (Sigma-Aldrich, MO, Lot #MKCP8263) to prevent evaporative water loss and decrease the risk of contamination.
(§4) Phycocyanin and chlorophyll α fluorescence in antibiotic-treated and control F. diplosiphon B481-WT and B481-SD were recorded every other day (48 hour intervals) using a microplate reader (BioTek Synergy H1 Microplate Reader, Agilent, USA). While chlorophyll α fluorescence was recorded at an excitation of 420 nm and emission of 680 nm, phycocyanin was measured at excitations of 590 nm, and emissions of 650 nm, see FIGS. 5-20. Maximum PSII quantum yield (Fv/Fo) of treated and controlled F. diplosiphon strains was likewise measured using MINI-PAM (Walz, Effeltrich, Germany) every 48 h for 6 days after incubating in dark for 15 min. The (Fv/Fo) was calculated using the equation

[3] = test system: F. diplosiphon strain B481-WT; experiment: phycocyanin and chlorophyll α autofluorescence, strain B481-WT; format: cell-based, Fremyella diplosiphon; conditions: for concentrations with significant decrease in pigment (phycocyanin and chlorophyll α) autofluorescence / concentrations with enhanced pigment accumulation: vs untreated control
Procedure: as §1, §2, §3, §4

[4] = test system: F. diplosiphon strain B481-SD; experiment: maximum PSII quantum yield (Fv/Fo), strain B481-SD; format: cell-based, Fremyella diplosiphon
Procedure: as §4

[5] = test system: F. diplosiphon strain B481-WT; format: cell-based, Fremyella diplosiphon
Procedure: (§5) The flasks were placed in an incubator at 37° C. in the dark for 24 h prior to lactate dehydrogenase (“LDH”) measurement. On day 6, 50 μl cultures were transferred to a 96 well clear polystyrene microplate (Corning, Inc., NY), and fluorescence Epi-RGB mode was used to macro-evaluation of antibiotic-treated both strains (Amersham Imager 680, GE Healthcare Bio-Sciences AB, Uppsala, Sweden). Next, 50 μL of the reaction mixture (LDH Cytotoxicity Assay Kit, Thermo Fisher Scientific, United States) was added. After incubation for 30 min. at room temperature in the dark, 50 μL of stock solution was added and mixed gently (Wejnerowski et al., 2018). Absorbance was measured at 490 nm using a microplate reader (BioTek Synergy H1 Microplate Reader, Agilent, United States) after 2 h incubation in the dark at room temperature. The calculated average of the control included cells without antibiotics or nVZI treatment was accepted as healthy cells and results were determined by subtracting LDH activity of the control from treated cells. Microscopic observations of antibiotic-related membrane and cyanobacterial structure alterations were made using a Cytation 5 Cell Imaging Multi-Mode reader (BioTek® Instruments, Inc., Winooski, United States).

[6] = test system: F. diplosiphon B481-SD cultures; experiment: total lipid content by gravimetry; format: cell-based, Fremyella diplosiphon; conditions: 0.8 mg/L; not statistically different (p>0.05)
Procedure: (§6) Total lipids were extracted and GC×GC/TOF-MS analysis of transesterified lipids in F. diplosiphon treated with optimal ampicillin were performed. B481-SD cultures were grown under optimal conditions and harvested on day 15. Total lipids were extracted using the chloroform: methanol method described by Folch et al. (1957). Briefly, cultures were pelleted and lyophilized, and 15 mL methanol/chloroform (2:1, v/v) solvent was added to 100 mg dry weight of cells. The mixture was homogenized, incubated on ice, and centrifuged at 3000 rpm for 10 min to collect the organic phase. The biomass residue was re-extracted thrice with 4 mL of methanol and 2 mL of chloroform. The lower organic phase was dried in a rotary evaporator (Heidolph, IL, USA), and the total lipid content was estimated by gravimetry.

[7] = test system: F. diplosiphon B481-SD cultures; experiment: GC×GC/TOF-MS analysis of transesterified lipids (FAMEs); format: cell-based, Fremyella diplosiphon; conditions: 0.8 mg/L
Procedure: as §6
Simultaneous extraction and transesterification of F. diplosiphon lipids were performed according to the method described by Wahlen et al. (2011). […] The reaction was quenched with 4 ml chloroform, washed in distilled water, and centrifuged at 2000 rpm for phase separation. The chloroform phase containing FAMEs and lipids was transferred to a new flask, and the remaining biomass was washed twice with 2 mL chloroform and mixed. The extracted FAMEs were subjected to high-resolution two-dimensional gas chromatography-time of flight mass spectrometry (GC×GC/TOF-MS) as described by Tabatabai et al. (2018).

[8] = test system: F. diplosiphon strain B481-WT; experiment: maximum PSII quantum yield (Fv/Fo), strain B481-WT; format: cell-based, Fremyella diplosiphon
Procedure: as §4

[9] = test system: Microcystis aeruginosa; conditions: cited from earlier work
[10] = test system: F. diplosiphon strain B481-SD; experiment: lactate dehydrogenase (LDH) activity / membrane permeability, strain B481-SD; format: cell-based, Fremyella diplosiphon
[11] = test system: F. diplosiphon strain B481-SD; format: cell-based, Fremyella diplosiphon
Procedure: as §5

[12] = test system: F. diplosiphon; conditions: day 6; strain not stated

CC1(C)S[C@@H]2[C@H](NC(=O)[C@H](N)c3ccccc3)C(=O)N2[C@H]1C(=O)O [ampicillin]
concentration of maximum LDH activity [1]: 0.4 mg/L
concentrations with significant increase in pigment (phycocyanin and chlorophyll α) autofluorescence [2]: 0.2 to 25.6 mg/L and 0.2 to 51.2 mg/L
concentrations with significant decrease in pigment (phycocyanin and chlorophyll α) autofluorescence [3]: 3.2 to 102.5 mg/L
concentrations with significant increase in Fv/Fo ([4]; day 4, vs control): 0.2 to 3.2 mg/L
concentration above which filament fragmentation and alteration of cell shape were observed [5]: higher than 25.6 mg/L
total lipid content compared to the control [6]: slight increase
monounsaturated fatty acids compared to the control [7]: Enhanced amounts
polyunsaturated fatty acids compared to the control [7]: Enhanced amounts
saturated fatty acids (SFAs) compared to the control [7]: augmentation; also recorded: Enhanced amounts
methyl ester of hexadecanoic acid (C16: 0) level vs untreated control ([7]; p<0.05): significantly higher
methyl octadecadienoate (C18: 2) level vs untreated control ([7]; p<0.05): significantly higher
methyloctadecenoate (C18: 1) level vs untreated control ([7]; p<0.05): significantly higher
ç-Linolenic acid (C18: 3) level vs untreated control ([7]; p<0.05): significantly higher

CO/N=C(\C(=O)N[C@@H]1C(=O)N2C(C(=O)O)=C(COC(C)=O)CS[C@H]12)c1csc(N)n1 [cefotaxime]
concentrations with significant decrease in pigment (phycocyanin and chlorophyll α) autofluorescence [2]: 0.8 to 102.5 mg/L
concentration above which there is no recovery of Fv/Fo [4]: higher than 1.6 mg/L
concentration above which there is no recovery of Fv/Fo [8]: > 0.05 mg/L

CC[C@H]1OC(=O)[C@H](C)[C@@H](O[C@H]2C[C@@](C)(OC)[C@@H](O)[C@H](C)O2)[C@H](C)[C@@H](O[C@@H]2O[C@H](C)C[C@H](N(C)C)[C@H]2O)[C@](C)(O)C[C@@H](C)C(=O)[C@H](C)[C@@H](O)[C@]1(C)O [erythromycin]
low dosages reported to trigger photosynthetic activity [9]: < 20 mg/L

NC[C@H]1O[C@H](O[C@H]2[C@H](O)[C@@H](O[C@H]3O[C@H](CO)[C@@H](O)[C@H](N)[C@H]3O)[C@H](N)C[C@@H]2N)[C@H](O)[C@@H](O)[C@@H]1O [kanamycin]
concentration of maximum LDH activity [10]: 0.8 mg/L
concentration of maximum LDH activity [1]: 0.4 mg/L
concentrations with significant decrease in pigment (phycocyanin and chlorophyll α) autofluorescence [2]: 6.4 to 102.5 mg/L
concentrations with significant increase in pigment (phycocyanin and chlorophyll α) autofluorescence [2]: 0.2 to 3.2 mg/L
concentrations with enhanced pigment accumulation [3]: 0.2 to 3.2 mg/L
concentrations with significant decrease in pigment (phycocyanin and chlorophyll α) autofluorescence [3]: 6.4 to 102.5 mg/L
concentrations with decrease in Fv/Fo ratio ([8]; exposure for 6 days): 1.6 to 102.5 mg/L
concentrations with significant increase in Fv/Fo ([8]; vs control group): 0.2 to 1.6 mg/L
concentration above which filament fragmentation and alteration of cell shape were observed [11]: > 51.2 µg/mL
concentration above which filament fragmentation and alteration of cell shape were observed [5]: > 51.2 µg/mL
concentration of maximal LDH activity (membrane permeability) [12]: 0.8 mg/L

CN(C)[C@@H]1C(O)=C(C(N)=O)C(=O)[C@@]2(O)C(O)=C3C(=O)c4c(O)cccc4[C@@](C)(O)[C@H]3C[C@@H]12 [tetracycline]
concentration of maximum LDH activity [10]: 0.8 mg/L
concentration of maximum LDH activity [1]: 0.4 mg/L
concentrations with significant increase in pigment autofluorescence ([2]; day 6): 0.8 to 12.8 mg/L
concentrations with significant decrease in pigment (phycocyanin and chlorophyll α) autofluorescence [2]: 102.5 to 410 mg/L
concentrations with significant increase in pigment (phycocyanin and chlorophyll α) autofluorescence [2]: 0.8 to 12.8 mg/L
concentrations with significant increase in pigment autofluorescence ([3]; day 6): 0.8 to 12.8 mg/L
concentrations with enhanced pigment accumulation [3]: 0.8 to 12.8 mg/L
concentrations with significant decrease in pigment (phycocyanin and chlorophyll α) autofluorescence [3]: 25.6 to 410 mg/L
concentrations with decrease in Fv/Fo ratio ([4]; exposure for 6 days): higher than 102.5 mg/L
concentration of maximal LDH activity (membrane permeability) [12]: 0.8 mg/L
